From US12473282B2, “Biphenyl fluorine double bond derivative, preparation method therefor, and pharmaceutical application thereof” (Abbisko Therapeutics Co., Ltd., priority 2020, dated 2025)

assay: Jurkat reporter gene cellular assay; assay type: cell-based; conditions: Homo sapiens; Jurkat/NF-κB-luc/PD1 + Raji-PD-L1 coculture, OKT3 1 μg/mL, 6 hrs, activation fold; read-out: Cell Activity EC50
Protocol: The effect of compounds of the examples of the present invention and positive compounds on the interaction between PD-1 and PD-L1 expressed on cell surfaces, and the related influence on T cell functions, were determined by a Jurkat reporter gene cellular assay.
Briefly, the reporter gene plasmid of NF-κB-luc and the plasmid of human PD-1 were transfected into Jurkat cells to establish a stably transfected cell line capable of stably expressing both PD-1 and NF-κB-Luc reporter genes; the expression level of PD-1 on the cell surface was confirmed by flow cytometry; and the expression of the reporter gene was confirmed via the response of the reporter gene stimulated by OKT-3 and Raiji cells.
In addition, the plasmid of human PD-L1 was transfected into Raji cells to obtain a cell line capable of stably expressing PD-L1. Jurkat/NF-κB-luc/PD1 cells and Raji-PD-L1 cells were then cocultured and stimulated with OKT-3. On this basis, the compounds were added, and the enhancement of the signal pathway of T cell activation by the inhibitory effect of the compounds on the interaction between PD-1 and PD-L1 was evaluated by readings of reporter gene responses. The specific experimental process was as follows: • 1. 30 μL of compound or antibody solution was added to each well of a white 96-well plate (corning, 3610) at different diluted concentrations, and 10 μL of OKT3 (Biolegend, 317326) was then added (the final concentration of OKT3: 1 μg/mL); • 2. 20 μL of Raji-PD-L1 cell suspension was added to each well with 5*10^4 cells for each well, and was incubated in an incubator for 20 min; • 3. 20 μL of Jurkat/NF-Kb-luc/PD-1 cell suspension was added to each well with 5*10^4 cells for each well, and well mixed, and 6 hrs later, Bright-glo (Promega, E2620) was applied and plates were read on Envision; • 4. The reading of each well treated with the compound was compared with the reading of each well treated with DMSO to obtain the activation fold of the compound; • 5. EC50 values of compounds and positive compounds of the examples of the present invention were determined by non-linear regression analysis of activation folds at different compound concentrations.

| Structure (SMILES) | EC50 |
| --- | --- |
| COc1cc(/C(F)=C/c2cccc(-c3cccc(NC(=O)c4nc5c(n4C)CCN(CCC46CCC(C(=O)O)(CC4)C6)C5)c3Cl)c2Cl)ncc1CN1CC(O)C1 [Example 42, (Z)-4-(2-(2-((2,2′-dichloro-3′-(2-fluoro-2-(5-((3-hydroxyazetidin-1-yl)methyl)-4-methoxypyridin-2-yl)vinyl)-[1,1′-biphenyl]-3-yl)carbamoyl)-1-methyl-1,4,6,7-tetrahydro-5H-imidazo[4,5-c]pyridin-5-yl)ethyl)bicyclo[2.2.1]heptane-1-carboxylic acid] | 118 nM |
| COc1cc(/C(F)=C/c2cccc(-c3cccc(NC(=O)c4nc5c(n4C)CCN(CCC46CCC(C(=O)O)(CC4)C6)C5)c3Cl)c2Cl)ncc1CNCCCO [Example 43, (Z)-4-(2-(2-((2,2′-dichloro-3′-(2-fluoro-2-(5-(((3-hydroxypropyl)amino)methyl)-4-methoxypyridin-2-yl)vinyl)-[1,1′-biphenyl]-3-yl)carbamoyl)-1-methyl-1,4,6,7-tetrahydro-5H-imidazo[4,5-c]pyridin-5-yl)ethyl)bicyclo[2.2.1]heptane-1-carboxylic acid] | 137 nM |
| COc1cc(/C(F)=C/c2cccc(-c3cccc(NC(=O)c4nc5c(n4C)CCN(CCC46CCC(C(=O)O)(CC4)C6)C5)c3Cl)c2Cl)ncc1CN[C@@H](C)CO [Example 44, (S,Z)-4-(2-(2-((2,2′-dichloro-3′-(2-fluoro-2-(5-(((1-hydroxypropan-2-yl)amino)methyl)-4-methoxypyridin-2-yl)vinyl)-[1,1′-biphenyl]-3-yl)carbamoyl)-1-methyl-1,4,6,7-tetrahydro-5H-imidazo[4,5-c]pyridin-5-yl)ethyl)bicyclo[2.2.1]heptane-1-carboxylic acid] | 105 nM |
| COc1cc(/C(F)=C/c2cccc(-c3cccc(NC(=O)c4nc5c(n4C)CCN(CCC46CCC(C(=O)O)(CC4)C6)C5)c3Cl)c2Cl)ncc1CN[C@H]1C[C@@H](O)C1 [Example 45, 4-(2-(2-((2,2′-dichloro-3′-((Z)-2-fluoro-2-(5-((((1S,3S)-3-hydroxycyclobutyl)amino)methyl)-4-methoxypyridin-2-yl)vinyl)-[1,1′-biphenyl]-3-yl)carbamoyl)-1-methyl-1,4,6,7-tetrahydro-5H-imidazo[4,5-c]pyridin-5-yl)ethyl)bicyclo[2.2.1]heptane-1-carboxylic acid] | 114 nM |
| COc1cc(/C(F)=C/c2cccc(-c3cccc(NC(=O)c4nc5c(n4C)CCN(CCC46CCC(C(=O)O)(CC4)C6)C5)c3Cl)c2Cl)ncc1CNCC(C)(C)O [Example 46, (Z)-4-(2-(2-((2,2′-dichloro-3′-(2-fluoro-2-(5-(((2-hydroxy-2-methylpropyl)amino)methyl)-4-methoxypyridin-2-yl)vinyl)-[1,1′-biphenyl]-3-yl)carbamoyl)-1-methyl-1,4,6,7-tetrahydro-5H-imidazo[4,5-c]pyridin-5-yl)ethyl)bicyclo[2.2.1]heptane-1-carboxylic acid] | 152 nM |
| COc1cc(/C(F)=C/c2cccc(-c3cccc(NC(=O)c4nc5c(n4C)CCN(CCC46CCC(C(=O)O)(CC4)C6)C5)c3Cl)c2Cl)ncc1CNC1CC1 [Example 47, (Z)-4-(2-(2-((2,2′-dichloro-3′-(2-(5-((cyclopropylamino)methyl)-4-methoxypyridin-2-yl)-2-fluorovinyl)-[1,1′-biphenyl]-3-yl)carbamoyl)-1-methyl-1,4,6,7-tetrahydro-5H-imidazo[4,5-c]pyridin-5-yl)ethyl) bicyclo[2.2. l]heptane-1-carboxylic acid] | 147 nM |
| COc1cc(/C(F)=C/c2cccc(-c3cccc(NC(=O)c4nc5c(n4C)CCN(CCC46CCC(C(=O)O)(CC4)C6)C5)c3Cl)c2Cl)ncc1CNC1CCC1 [Example 48, (Z)-4-(2-(2-((2,2′-dichloro-3′-(2-(5-((cyclobutylamino)methyl)-4-methoxypyridin-2-yl)-2-fluorovinyl)-[1,1′-biphenyl]-3-yl)carbamoyl)-1-methyl-1,4,6,7-tetrahydro-5H-imidazo[4,5-c]pyridin-5-yl)ethyl) bicyclo[2.2.1]heptane-1-carboxylic acid] | 80.6 nM |
| COc1cc(/C(F)=C/c2cccc(-c3cccc(NC(=O)c4nc5c(n4C)CCN(CCC46CCC(C(=O)O)(CC4)C6)C5)c3Cl)c2Cl)ncc1CNC1CCCC1 [Example 51, (Z)-4-(2-(2-((2,2′-dichloro-3′-(2-(5-((cyclopentylamino)methyl)-4-methoxypyridin-2-yl)-2-fluorovinyl)-[1,1′-biphenyl]-3-yl)carbamoyl)-1-methyl-1,4,6,7-tetrahydro-5H-imidazo[4,5-c]pyridin-5-yl)ethyl) bicyclor[2.2.1]heptane-1-carboxylic acid] | 90.1 nM |
| COc1cc(/C(F)=C/c2cccc(-c3cccc(NC(=O)c4nc5c(n4C)CCN(CCC46CCC(C(=O)O)(CC4)C6)C5)c3Cl)c2Cl)ncc1CN1CCC[C@H]1C(C)(C)O [Example 52, (S,Z)-4-(2-(2-((2,2′-dichloro-3′-(2-fluoro-2-(5-((2-(2-hydroxypropan-2-yl)pyrrolidin-1-yl)methyl)-4-methoxypyridin-2-yl)vinyl)-[1,1′-biphenyl]-3-yl)carbamoyl)-1-methyl-1,4,6,7-tetrahydro-5H-imidazo [4,5-c]pyridin-5-yl)ethyl)bicyclo[2.2.1]heptane-1-carboxylic acid] | 116 nM |
| COc1cc(/C(F)=C/c2cccc(-c3cccc(NC(=O)c4nc5c(n4C)CCN(CCC46CCC(C(=O)O)(CC4)C6)C5)c3Cl)c2Cl)ncc1CNC12CC3CC(CC(C3)C1)C2 [Example 53, (Z)-4-(2-(2-((3′-(2-(5-((adamantan-1-ylamino)methyl)-4-methoxypyridin-2-yl)-2-fluorovinyl)-2,2′-dichloro-[1,1′-biphenyl]-3-yl)carbamoyl)-1-methyl-1,4,6,7-tetrahydro-5H-imidazo[4,5-c]pyridin-5-yl)ethyl)bicyclo[2.2.1]heptane-1-carboxylic acid] | 1040 nM |
| COc1cc(/C(F)=C/c2cccc(-c3cccc(NC(=O)c4nc5c(n4C)CCN(CCC46CCC(C(=O)O)(CC4)C6)C5)c3Cl)c2Cl)ncc1CN(C)CCN(C)C [Example 54, (Z)-4-(2-(2-((2,2′-dichloro-3′-(2-(5-(((2-(dimethylamino)ethyl)(methyl)amino)methyl)-4-methoxypyridin-2-yl)-2-fluorovinyl)-[1,1′-biphenyl]-3-yl)carbamoyl)-1-methyl-1,4,6,7-tetrahydro-5H-imidazo [4,5-c]pyridin-5-yl)ethyl)bicyclo[2.2.1]heptane-1-carboxylic acid] | 250 nM |
| COc1cc(/C(F)=C/c2cccc(-c3cccc(NC(=O)c4nc5c(n4C)CCN(CCC46CCC(C(=O)O)(CC4)C6)C5)c3Cl)c2Cl)ncc1CN1CCC2(CCC2)C1 [Example 55, (Z)-4-(2-(2-((3′-(2-(5-((6-azaspiro[3.4]octan-6-yl)methyl)-4-methoxypyridin-2-yl)-2-fluorovinyl)-2,2′-dichloro-[1,1′-biphenyl]-3-yl)carbamoyl)-1-methyl-1,4,6,7-tetrahydro-5H-imidazo[4,5-c]pyridin-5-yl)ethyl)bicyclo[2.2.1]heptane-1-carboxylic acid] | 149 nM |
| COc1cc(/C(F)=C/c2cccc(-c3cccc(NC(=O)c4nc5c(n4C)CCN(CCC46CCC(C(=O)O)(CC4)C6)C5)c3Cl)c2Cl)ncc1CN1CC[C@@H](C)C1 [Example 56, (R,Z)-4-(2-(2-((2,2′-dichloro-3′-(2-fluoro-2-(4-methoxy-5-((3-methylpyrrolidin-1-yl)methyl)pyridin-2-yl)vinyl)-[1,1′-biphenyl]-3-yl)carbamoyl)-1-methyl-1,4,6,7-tetrahydro-5H-imidazo[4,5-c]pyridin-5-yl)ethyl)bicyclo[2.2.1]heptane-1-carboxylic acid] | 61.4 nM |
| COc1cc(/C(F)=C/c2cccc(-c3cccc(NC(=O)c4nc5c(n4C)CCN(CCC46CCC(C(=O)O)(CC4)C6)C5)c3Cl)c2Cl)ncc1CN1C[C@@H](O)[C@H](F)C1 [Example 57, 4-(2-(2-((2,2′-dichloro-3′-((Z)-2-fluoro-2-(5-(((3R,4R)-3-fluoro-4-hydroxypyrrolidin-1-yl)methyl)-4-methoxypyridin-2-yl)vinyl)-[1,1-biphenyl]-3-yl)carbamoyl)-1-methyl-1,4,6,7-tetrahydro-5H-imidazo [4,5-c]pyridin-5-yl)ethyl)bicyclo[2.2.1]heptane-1-carboxylic acid] | 72 nM |
| COc1cc(/C(F)=C/c2cccc(-c3cccc(NC(=O)c4nc5c(n4C)CCN(CCC46CCC(C(=O)O)(CC4)C6)C5)c3Cl)c2Cl)ncc1CN1CC[C@@H](F)C1 [Example 60, (R,Z)-4-(2-(2-((2,2′-dichloro-3′-(2-fluoro-2-(5-((3-fluoropyrrolidin-1-yl)methyl)-4-methoxypyridin-2-yl)vinyl)-[1,1′-biphenyl]-3-yl)carbamoyl)-1-methyl-1,4,6,7-tetrahydro-5H-imidazo[4,5-c]pyridin-5-yl)ethyl)bicyclo[2.2.1]heptane-1-carboxylic acid] | 134 nM |
